The values below are quoted from earlier work in article PMC5774433 (MedChemComm, 2017).

The subject of this series is menin.

Turning to `CC1(C)CN=C(N2CCN(c3ncnc4sc(CC(F)(F)F)cc34)CC2)S1` [MI-2-2], the “increase in the binding affinity compared to its non-fluorinated counterpart” value was “over 20 fold”.
